Assay results as given in PubChem BioAssay (NCI).
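Results reflect a 48-hour exposure of cells in 96-well plates to compound at five concentrations. TGI denotes the concentration required for complete inhibition of growth.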

Legend:
Experiment in all cases: NCI-60 cell line screen, 48 h
KM12 colon = system: KM12 colon
PC-3 prostate = system: PC-3 prostate
CAKI-1 renal = system: CAKI-1 renal
A549 NSCLC = system: A549 NSCLC
SK-OV-3 ovarian = system: SK-OV-3 ovarian
MALME-3M melanoma = system: MALME-3M melanoma
OVCAR-3 ovarian = system: OVCAR-3 ovarian
HS 578T breast = system: HS 578T breast
MDA-N = system: MDA-N
OVCAR-8 ovarian = system: OVCAR-8 ovarian
786-0 renal = system: 786-0 renal
IGROV1 ovarian = system: IGROV1 ovarian
SN12C renal = system: SN12C renal
SF-268 CNS = system: SF-268 CNS
RXF 393 renal = system: RXF 393 renal
DU-145 prostate = system: DU-145 prostate
NCI-H23 lung = system: NCI-H23 lung
NCI/ADR-RES ovarian = system: NCI/ADR-RES ovarian
OVCAR-5 ovarian = system: OVCAR-5 ovarian
BT-549 breast = system: BT-549 breast
SNB-75 CNS = system: SNB-75 CNS
NCI-H460 lung = system: NCI-H460 lung
HOP-92 NSCLC = system: HOP-92 NSCLC
T-47D breast = system: T-47D breast
U251 CNS = system: U251 CNS
MDA-MB-231 breast = system: MDA-MB-231 breast
MOLT-4 leukemia = system: MOLT-4 leukemia
SR leukemia = system: SR leukemia
TK-10 renal = system: TK-10 renal
HCT-116 colon = system: HCT-116 colon
NCI-H522 lung = system: NCI-H522 lung
HT29 colon = system: HT29 colon
UACC-62 melanoma = system: UACC-62 melanoma
SK-MEL-28 melanoma = system: SK-MEL-28 melanoma
LOX IMVI melanoma = system: LOX IMVI melanoma
NCI-H226 lung = system: NCI-H226 lung
MCF7 breast = system: MCF7 breast
M14 melanoma = system: M14 melanoma
SW-620 colon = system: SW-620 colon
HOP-62 NSCLC = system: HOP-62 NSCLC
SK-MEL-5 melanoma = system: SK-MEL-5 melanoma
SF-295 CNS = system: SF-295 CNS
EKVX NSCLC = system: EKVX NSCLC
CCRF-CEM leukemia = system: CCRF-CEM leukemia
SK-MEL-2 melanoma = system: SK-MEL-2 melanoma
HL-60(TB) leukemia = system: HL-60(TB) leukemia
SF-539 CNS = system: SF-539 CNS
K-562 leukemia = system: K-562 leukemia
UACC-257 melanoma = system: UACC-257 melanoma
MDA-MB-435 = system: MDA-MB-435
A498 renal = system: A498 renal
OVCAR-4 ovarian = system: OVCAR-4 ovarian
RPMI-8226 leukemia = system: RPMI-8226 leukemia
ACHN renal = system: ACHN renal
HCT-15 colon = system: HCT-15 colon
SNB-19 CNS = system: SNB-19 CNS
UO-31 renal = system: UO-31 renal
COLO 205 colon = system: COLO 205 colon

SMILES: CN1CCc2c(sc3ncn(N)c(=N)c23)C1
- TGI (KM12 colon): > 100 µM
- TGI (PC-3 prostate): > 100 µM
- TGI (CAKI-1 renal): > 100 µM
- TGI (A549 NSCLC): > 100 µM
- TGI (SK-OV-3 ovarian): > 100 µM
- TGI (MALME-3M melanoma): > 100 µM
- TGI (OVCAR-3 ovarian): > 100 µM
- TGI (HS 578T breast): > 100 µM
- TGI (MDA-N): > 100 µM
- TGI (OVCAR-8 ovarian): > 100 µM
- TGI (786-0 renal): > 100 µM
- TGI (IGROV1 ovarian): > 100 µM
- TGI (SN12C renal): > 100 µM
- TGI (SF-268 CNS): > 100 µM
- TGI (RXF 393 renal): > 100 µM
- TGI (DU-145 prostate): > 100 µM
- TGI (NCI-H23 lung): > 100 µM
- TGI (NCI/ADR-RES ovarian): > 100 µM
- TGI (OVCAR-5 ovarian): > 100 µM
- TGI (BT-549 breast): > 100 µM
- TGI (SNB-75 CNS): > 100 µM
- TGI (NCI-H460 lung): > 100 µM
- TGI (HOP-92 NSCLC): > 100 µM
- TGI (T-47D breast): > 100 µM
- TGI (U251 CNS): > 100 µM
- TGI (MDA-MB-231 breast): > 100 µM
- TGI (MOLT-4 leukemia): > 100 µM
- TGI (SR leukemia): > 100 µM
- TGI (TK-10 renal): > 100 µM
- TGI (HCT-116 colon): > 100 µM
- TGI (NCI-H522 lung): > 100 µM
- TGI (HT29 colon): > 100 µM
- TGI (UACC-62 melanoma): > 100 µM
- TGI (SK-MEL-28 melanoma): > 100 µM
- TGI (LOX IMVI melanoma): > 100 µM
- TGI (NCI-H226 lung): > 100 µM
- TGI (MCF7 breast): > 100 µM
- TGI (M14 melanoma): > 100 µM
- TGI (SW-620 colon): > 100 µM
- TGI (HOP-62 NSCLC): > 100 µM
- TGI (SK-MEL-5 melanoma): > 100 µM
- TGI (SF-295 CNS): > 100 µM
- TGI (EKVX NSCLC): > 100 µM
- TGI (CCRF-CEM leukemia): > 100 µM
- TGI (SK-MEL-2 melanoma): > 100 µM
- TGI (HL-60(TB) leukemia): > 100 µM
- TGI (SF-539 CNS): > 100 µM
- TGI (K-562 leukemia): > 100 µM
- TGI (UACC-257 melanoma): > 100 µM
- TGI (MDA-MB-435): > 100 µM
- TGI (A498 renal): > 100 µM
- TGI (OVCAR-4 ovarian): > 100 µM
- TGI (RPMI-8226 leukemia): > 100 µM
- TGI (ACHN renal): > 100 µM
- TGI (HCT-15 colon): > 100 µM
- TGI (SNB-19 CNS): > 100 µM

SMILES: CC(C)c1cc(C(F)(F)F)nc(NNc2nc(C(C)C)cc(C(F)(F)F)n2)n1
- TGI (KM12 colon): > 100 µM
- TGI (PC-3 prostate): > 100 µM
- TGI (CAKI-1 renal): > 100 µM
- TGI (A549 NSCLC): > 100 µM
- TGI (SK-OV-3 ovarian): > 100 µM
- TGI (MALME-3M melanoma): > 100 µM
- TGI (OVCAR-3 ovarian): 85.5 µM
- TGI (HS 578T breast): > 100 µM
- TGI (MDA-N): > 100 µM
- TGI (OVCAR-8 ovarian): > 100 µM
- TGI (786-0 renal): > 100 µM
- TGI (IGROV1 ovarian): > 100 µM
- TGI (SN12C renal): > 100 µM
- TGI (SF-268 CNS): > 100 µM
- TGI (RXF 393 renal): > 100 µM
- TGI (DU-145 prostate): > 100 µM
- TGI (UO-31 renal): > 100 µM
- TGI (NCI-H23 lung): > 100 µM
- TGI (NCI/ADR-RES ovarian): > 100 µM
- TGI (OVCAR-5 ovarian): > 100 µM
- TGI (BT-549 breast): > 100 µM
- TGI (SNB-75 CNS): 95.8 µM
- TGI (NCI-H460 lung): > 100 µM
- TGI (HOP-92 NSCLC): > 100 µM
- TGI (T-47D breast): > 100 µM
- TGI (U251 CNS): > 100 µM
- TGI (MDA-MB-231 breast): > 100 µM
- TGI (MOLT-4 leukemia): > 100 µM
- TGI (SR leukemia): > 100 µM
- TGI (TK-10 renal): 56.1 µM
- TGI (HCT-116 colon): > 100 µM
- TGI (NCI-H522 lung): > 100 µM
- TGI (HT29 colon): > 100 µM
- TGI (UACC-62 melanoma): > 100 µM
- TGI (SK-MEL-28 melanoma): > 100 µM
- TGI (NCI-H226 lung): > 100 µM
- TGI (MCF7 breast): > 100 µM
- TGI (M14 melanoma): > 100 µM
- TGI (SW-620 colon): > 100 µM
- TGI (HOP-62 NSCLC): 86.4 µM
- TGI (SK-MEL-5 melanoma): > 100 µM
- TGI (SF-295 CNS): > 100 µM
- TGI (EKVX NSCLC): > 100 µM
- TGI (CCRF-CEM leukemia): > 100 µM
- TGI (SK-MEL-2 melanoma): > 100 µM
- TGI (HL-60(TB) leukemia): > 100 µM
- TGI (SF-539 CNS): > 100 µM
- TGI (COLO 205 colon): > 100 µM
- TGI (K-562 leukemia): > 100 µM
- TGI (UACC-257 melanoma): > 100 µM
- TGI (MDA-MB-435): > 100 µM
- TGI (A498 renal): > 100 µM
- TGI (OVCAR-4 ovarian): > 100 µM
- TGI (RPMI-8226 leukemia): > 100 µM
- TGI (ACHN renal): > 100 µM
- TGI (HCT-15 colon): > 100 µM
- TGI (SNB-19 CNS): > 100 µM

SMILES: Cc1cc(C)c2c(=O)n(CN3CCC(C#N)(c4ccccc4)CC3)sc2n1
- TGI (KM12 colon): > 100 µM
- TGI (PC-3 prostate): > 100 µM
- TGI (CAKI-1 renal): > 100 µM
- TGI (A549 NSCLC): > 100 µM
- TGI (SK-OV-3 ovarian): > 100 µM
- TGI (MALME-3M melanoma): 46.5 µM
- TGI (OVCAR-3 ovarian): > 100 µM
- TGI (HS 578T breast): > 100 µM
- TGI (MDA-N): 80.3 µM
- TGI (OVCAR-8 ovarian): 81.5 µM
- TGI (786-0 renal): 52.6 µM
- TGI (IGROV1 ovarian): > 100 µM
- TGI (SN12C renal): > 100 µM
- TGI (SF-268 CNS): > 100 µM
- TGI (RXF 393 renal): 48 µM
- TGI (DU-145 prostate): > 100 µM
- TGI (UO-31 renal): 34.1 µM
- TGI (NCI-H23 lung): > 100 µM
- TGI (NCI/ADR-RES ovarian): > 100 µM
- TGI (OVCAR-5 ovarian): 90.9 µM
- TGI (BT-549 breast): > 100 µM
- TGI (SNB-75 CNS): 76.1 µM
- TGI (NCI-H460 lung): > 100 µM
- TGI (HOP-92 NSCLC): > 100 µM
- TGI (T-47D breast): > 100 µM
- TGI (U251 CNS): > 100 µM
- TGI (MDA-MB-231 breast): > 100 µM
- TGI (MOLT-4 leukemia): > 100 µM
- TGI (SR leukemia): > 100 µM
- TGI (TK-10 renal): 63.6 µM
- TGI (HCT-116 colon): > 100 µM
- TGI (NCI-H522 lung): 31.3 µM
- TGI (HT29 colon): > 100 µM
- TGI (UACC-62 melanoma): > 100 µM
- TGI (SK-MEL-28 melanoma): > 100 µM
- TGI (LOX IMVI melanoma): 69.9 µM
- TGI (NCI-H226 lung): > 100 µM
- TGI (MCF7 breast): > 100 µM
- TGI (M14 melanoma): > 100 µM
- TGI (SW-620 colon): 67.7 µM
- TGI (HOP-62 NSCLC): > 100 µM
- TGI (SK-MEL-5 melanoma): > 100 µM
- TGI (SF-295 CNS): > 100 µM
- TGI (EKVX NSCLC): > 100 µM
- TGI (CCRF-CEM leukemia): > 100 µM
- TGI (SK-MEL-2 melanoma): > 100 µM
- TGI (HL-60(TB) leukemia): 49.7 µM
- TGI (SF-539 CNS): 98.3 µM
- TGI (COLO 205 colon): > 100 µM
- TGI (K-562 leukemia): > 100 µM
- TGI (UACC-257 melanoma): 44.6 µM
- TGI (MDA-MB-435): 65.5 µM
- TGI (A498 renal): > 100 µM
- TGI (OVCAR-4 ovarian): 88.8 µM
- TGI (ACHN renal): 44.1 µM
- TGI (HCT-15 colon): > 100 µM
- TGI (SNB-19 CNS): > 100 µM
